Measurements as given in PMC11758220, “Identification of a Privileged Scaffold for Inhibition of Sterol Transport Proteins through the Synthesis and Ring Distortion of Diverse, Pseudo-Natural Products” (ACS Central Science, 2025).

Experiments:
Assay type in all cases: binding
Aster-B = target: T1, Aster-B (Homo sapiens, UniProt Q3KR37); test: Fluorescence polarisation (FP) competition with NBD-cholesterol, Aster-B; settings: for inhibition at 10 µM / Aster-B (FP) inhibition: single dose, Dose = 10 µM; for IC50: mean of three experiments run in technical duplicates
T1 construct: -B(364-552); GST (PreScission-cleavable) (N, cleaved yes); made in house; host or cells: E. coli OverExpress C41
T1 sequence (Q3KR37 364-552): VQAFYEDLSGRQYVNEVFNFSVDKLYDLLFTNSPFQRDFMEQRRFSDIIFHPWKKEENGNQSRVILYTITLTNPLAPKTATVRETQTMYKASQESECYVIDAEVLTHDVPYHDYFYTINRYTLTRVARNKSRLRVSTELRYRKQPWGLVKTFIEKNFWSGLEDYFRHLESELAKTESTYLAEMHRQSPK
Source text: (§1) Protein expression constructs
(§2) Human ASTER domains of Aster-A(359-547), -B(364-552) and -C(318-504) were subcloned into a pGEX-6p-2rbs vector, thus introducing the cloning artifact ‘GPLGS’.3 The pGEX-6P-1-GST-OSBP(377- […]
(§3) a gift from James H. Hurley (University of California).4 The pHIS_2His6_Thrombin_STARD4(2-205;C75S) plasmid was a gift from Young Jun Im (Chonnam National University).5 STARD5A was a gift from Nicola Burgess-Brown (Addgene plasmid #42392; http://n2t.net/addgene:42392; […]
(§4) Protein expression and purification […]
(§5) vectors including an N-terminal PreScission-cleavable glutathione S-transferase (GST)-tag were expressed in Escherichia coli (E. coli) OverExpress C41 in Terrific Broth (TB) medium for 16 h at 18 °C after the induction with 0.1 mM isopropyl β-D-1-thiogalactopyranoside (IPTG). Cells were harvested at 3500 × g for 15 minutes and lysed by sonication in buffer containing 50 mM HEPES pH 7.5, 300 mM NaCl, 10 %v/v glycerol, 5 mM dithiothreitol (DTT), 0.1 %v/v Triton X-100 and protease inhibitor mix HP plus (Serva). The lysate was purified by affinity chromatography on a GSTrap FF column (Cytiva) using an ÄKTA Start (Cytiva) in buffer containing 50 mM HEPES pH 7.5, 300 mM NaCl, 10 %v/v glycerol, 5 mM DTT and 0.01 %v/v Triton X-100. The GST-tag was cleaved overnight on the column at 4 °C. The Aster sterol binding domains were further purified by size-exclusion chromatography (SEC) on a HiLoad 16/600 Superdex 75 pg (Cytiva) in buffer containing 20 mM HEPES pH 7.5, 300 mM NaCl, 10 %v/v […]
(§6) STARD5(6-213) harboring an N-terminal His6-Tag were expressed in E. coli BL21(DE3) in Luria-Bertani Broth (LB) medium for approximately 16 h at 18 °C after induction with 0.15 mM IPTG. Cells were harvested at 3500 × g for 15 minutes and lysed by sonication in buffer containing 50 mM HEPES pH 7.5, 150 mM NaCl, 5 %v/v glycerol, 5 mM DTT, 0.1 %v/v Triton X -100 and ethylenediaminetetraacetic acid (EDTA)-free protease inhibitor cocktail (Sigma-Aldrich). The cleared lysate was purified by affinity chromatography on a Ni-NTA Superflow Cartridge (Qiagen) using an ÄKTA Start (Cytiva) in buffer containing 50 mM HEPES pH 7.5, 150 mM NaCl, 5 %v/v glycerol, 5 mM DTT. START domains were eluted by using elution buffer containing 50 mM HEPES pH 7.5, 150 mM NaCl, 5 %v/v glycerol, 5 mM DTT and 500 mM imidazole. Proteins were further purified by SEC on a HiLoad 16/600 Superdex 75 pg (Cytiva) in buffer containing 20 mM HEPES pH 7.5, 150 mM NaCl, 5 %v/v glycerol and 2 mM DTT.
(§7) The ORP domain of human OSBP(377-807) in the pGEX-6p-1 vector with an N-terminal PreScission-cleavable GST-tag was expressed in E. coli OverExpress C41 in LB medium for 16 h at 18 °C after induction with 0.1 mM IPTG. Cells were harvested at 3500 × g for 15 minutes and lysed by sonication in buffer containing 20 mM HEPES pH 7.5, 300 mM NaCl, 10 %v/v glycerol, 5 mM DTT, 0.1 %v/v Triton X-100 and EDTA-free protease inhibitor cocktail (Sigma-Aldrich). The cleared lysate was purified by affinity chromatography on a GSTrap HF column (Cytiva) using an ÄKTA Start (Cytiva) in buffer containing 20 mM HEPES pH 7.5, 300 mM NaCl, 10 %v/v glycerol, 5 mM DTT. OSBP(377 -807) was eluted by using elution buffer containing 20 mM HEPES pH 7.5, 300 mM NaCl, 10 %v/v glycerol, 5 mM DTT and 10 mM reduced glutathione. Proteins were further purified by SEC on a HiLoad 16/600 Superdex 75 pg (Cytiva) using an ÄKTA Explorer (Cytiva) in buffer containing 20 mM HEPES pH 7.5, 150 mM NaCl, 10 %v/v glycerol and 2 mM DTT.
(§8) The ORP domains of human ORP1(534-950) in pET24b(+) and ORP2(49-480) in the pET24b(+) vector including an N-terminal His6-Tag were expressed in E. coli BL21(DE3) in TB medium for approximately 16 h at 18 °C after induction with 0.1 mM IPTG. Cells were collected at 3500 × g for 15 minutes and lysed by sonification in buffer containing 10 mM Tris-HCl pH 8, 300 mM NaCl, 5 % glycerol, 2 mM DTT, 0.1 % Triton X-100 and EDTA-free protease inhibitor cocktail (Sigma-Aldrich). The cleared […]

Aster-A = target: T2, Aster-A (Homo sapiens, UniProt Q96CP6); test: Fluorescence polarisation (FP) competition with NBD-cholesterol, Aster-A; settings: for inhibition at 10 µM / Aster-A (FP) inhibition: single dose, Dose = 10 µM; for IC50: mean of three experiments run in technical duplicates
T2 construct: Aster-A(359-547); GST (PreScission-cleavable) (N, cleaved yes); made in house; host or cells: E. coli OverExpress C41
T2 sequence (Q96CP6 359-547): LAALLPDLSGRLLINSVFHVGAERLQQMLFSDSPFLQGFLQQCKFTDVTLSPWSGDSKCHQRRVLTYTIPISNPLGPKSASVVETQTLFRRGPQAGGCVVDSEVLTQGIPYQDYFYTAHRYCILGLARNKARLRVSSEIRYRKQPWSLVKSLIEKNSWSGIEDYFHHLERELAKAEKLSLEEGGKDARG
Source text: as §1, §2, §3, §4, §5, §6, §7, §8

STARD5 = target: T3, STARD5 (Homo sapiens, UniProt Q9NSY2); test: Differential scanning fluorimetry (DSF), STARD5; settings: for ΔTm at 10 µM / STARD5 (DSF) ΔTm: single dose, Dose = 10 µM; for Kd: apparent Kd, mean of three experiments run in technical duplicates, read-out: STARD5 Kd,app (DSF); for STARD5 (DSF) ΔTmmax: maximal thermal shift
T3 construct: STARD5(6-213); host or cells: E. coli BL21(DE3)
T3 sequence (Q9NSY2 6-213): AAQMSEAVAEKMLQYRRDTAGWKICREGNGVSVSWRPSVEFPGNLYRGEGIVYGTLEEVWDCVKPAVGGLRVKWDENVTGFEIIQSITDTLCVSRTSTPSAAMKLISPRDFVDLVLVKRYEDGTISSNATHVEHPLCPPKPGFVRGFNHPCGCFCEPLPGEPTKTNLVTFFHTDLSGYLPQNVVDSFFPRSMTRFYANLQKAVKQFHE
Source text: as §1, §2, §3, §4, §5, §6, §7, §8

Compound | inhibition at 10 µM (Aster-B) [%] | inhibition at 10 µM (Aster-A) [%] | ΔTm at 10 µM (STARD5) [°C] | IC50 (Aster-B) [µM] | IC50 (Aster-A) [µM] | Aster-B (FP) inhibition (Aster-B) [%] | Aster-A (FP) inhibition (Aster-A) [%] | STARD5 (DSF) ΔTm (STARD5) [°C] | Kd (STARD5) [µM] | STARD5 (DSF) ΔTmmax (STARD5) [°C] | Activity against Aster-A (in words) (Aster-A; FP) | ΔTm at 100 µM (STARD5; at 100 μM, read-out: STARD5 ΔTm^max) [°C]
Cc1cc(C)c2c(c1)N=C1[C@@]2(O)CC[C@@H]2C[C@H](O)CC[C@]12C [Compound 14c] | 17 | 2 | 0.0425 | – | – | – | – | – | – | – | – | –
C[C@]12CC[C@@H]3C[C@H]1CC[C@@]21C(=Nc2ccc(C(F)(F)F)cc21)O3 [Compound 15g] | 18 | 79 | 0.9 | > 80 | 1.6 | – | – | – | – | – | – | –
C[C@]12CC[C@@H](O)C[C@H]1CCc1[nH]c(-c3ccccc3)nc12 [Compound 9] | 9 | -2 | 0.168 | – | – | – | – | – | – | – | – | –
C[C@]12CC[C@@H](O)C[C@H]1CCc1sc(N)nc12 [Compound 8a] | 3.33 | -1 | 0.0867 | – | – | – | – | – | – | – | – | –
C[C@]12CC[C@@H](O)C[C@H]1CCC[C@]21NC(=O)c2ccc(F)cc2N1 [Compound 5b] | 15 | -1 | -0.128 | – | – | 8 | -2 | 0.158 | – | – | – | –
COc1ccc2c(c1)[C@@]13CC[C@@H]4C[C@@H](CC[C@@]41C)OC3=N2 [Compound 15f] | 23 | 51 | 0.268 | > 80 | 5.06 | – | – | – | – | – | – | –
Cc1cc(C)c2c3c([nH]c2c1)[C@@]1(C)CC[C@@H](O)C[C@H]1CC3 [Compound 10j] | 16 | -2 | -0.163 | – | – | – | – | – | – | – | – | –
Cc1cc(C)c2c(c1)NC(=O)[C@@]1(C)CC[C@@H](O)C[C@H]1CCC2=O [Compound 11g] | 11 | 0 | 0.141 | – | – | – | – | – | – | – | – | –
CCCCCNc1ccc2c(c1)[C@@]13CC[C@@H]4C[C@@H](CC[C@@]41C)OC3=N2 [Compound 19c] | 11 | 59 | 1.3 | > 80 | 5.03 | – | – | – | 20.9 | 4.8 | – | –
C[C@]12CC[C@@H](O)C[C@H]1CCc1c2[nH]c2ccc(I)cc12 [Compound 10h] | – | – | – | – | – | 32 | 7 | 0.241 | – | – | – | –
C[C@]12CC[C@@H](O)C[C@H]1CCc1c2nc2ccc(Cl)cc2c1-c1ccccc1 [Compound 2e] | – | – | – | – | – | 2.5 | -4 | 0.221 | – | – | – | –
C[C@]12CC[C@@H]3C[C@H]1CC[C@@]21C(=Nc2ccc(Br)cc21)O3 (racemic) [Compound 15b] | 19 | 67 | 0.5 | > 80 | 4.3 | – | – | – | – | – | – | –
CCCCN(C)c1ccc2c(c1)[C@@]13CC[C@@H]4C[C@@H](CC[C@@]41C)OC3=N2 [Compound 19d] | 16 | 60 | 4.5 | > 80 | 3.89 | – | – | – | 11.9 | 7.4 | – | –
C[C@]12CC[C@@H](O)C[C@H]1CCC(=O)c1cc(Cl)cc(F)c1NC2=O [Compound 11f] | – | – | – | – | – | 11 | -1 | 0.154 | – | – | – | –
C[C@]12CC[C@@H]3C[C@H]1CC[C@@]21C(=Nc2c(F)cc(Cl)cc21)O3 [Compound 15i] | 13 | 46 | 0.109 | > 80 | 3.63 | – | – | – | – | – | – | –
CC12CCC3CC1CCC21C(=Nc2c(Br)cc(C(F)(F)F)cc21)O3 (stereo not shown) [Compound 15h] | 18 | 2 | 0.2 | > 80 | > 80 | – | – | – | – | – | inactive against Aster-A | –
CC12CCC3CC1CCC21C(=Nc2ccc(N4CCOCC4)cc21)O3 (single isomer, unassigned; (-)) [(−)-19a] | – | – | – | > 80 | 0.46 | 7 | 79 | 3.3 | > 30 | 5.2 | – | 4.7
C[C@]12CC[C@@H](O)C[C@H]1CCC[C@]21Nc2ccccc2-n2cccc21 [Compound 4] | -0.833 | -9 | 0.138 | – | – | -1.67 | -8 | 0.276 | – | – | – | –
C[C@]12CC[C@@H](O)C[C@H]1CCc1nc3ccccc3nc12 [Compound 7a] | 23 | 14 | 0.5 | – | – | – | – | – | – | – | – | –
Cc1cc2nc3c(nc2cc1C)[C@@]1(C)CC[C@@H](O)C[C@H]1CC3 [Compound 7b] | 7.5 | -1 | 0.328 | – | – | – | – | – | – | – | – | –
Cc1ccc2c(c1)C(=O)CC[C@@H]1C[C@H](O)CC[C@]1(C)C(=O)N2 [Compound 11c] | 6 | -4 | -0.119 | – | – | – | – | – | – | – | – | –
CC12CCC3CC1CCC21C(=Nc2ccc(N4CCOCC4)cc21)O3 (racemic) [Compound 19a] | 14 | 60 | 1.8 | > 80 | 0.77 | – | – | – | > 30 | 3.7 | – | –
